Experimental findings from US20230126391A1, “ALPHA-METHYL-SUBSTITUTED DIAZABICYCLO[4.3.1] DECANE DERIVATIVES FOR TREATMENT OF PSYCHIATRIC DISORDERS” (priority 2020, published 2023) are described below.

What all share (test): FP assay, binding to human FKBPs (Table 1)
Holding throughout (settings): fluorescence polarization assay

The target in one experiment is FKBP12 (Homo sapiens, UniProt P62942).
In the next experiment the target is T1, FKBP51 (Homo sapiens, UniProt Q13451).
T1 sequence (Q13451 1-457): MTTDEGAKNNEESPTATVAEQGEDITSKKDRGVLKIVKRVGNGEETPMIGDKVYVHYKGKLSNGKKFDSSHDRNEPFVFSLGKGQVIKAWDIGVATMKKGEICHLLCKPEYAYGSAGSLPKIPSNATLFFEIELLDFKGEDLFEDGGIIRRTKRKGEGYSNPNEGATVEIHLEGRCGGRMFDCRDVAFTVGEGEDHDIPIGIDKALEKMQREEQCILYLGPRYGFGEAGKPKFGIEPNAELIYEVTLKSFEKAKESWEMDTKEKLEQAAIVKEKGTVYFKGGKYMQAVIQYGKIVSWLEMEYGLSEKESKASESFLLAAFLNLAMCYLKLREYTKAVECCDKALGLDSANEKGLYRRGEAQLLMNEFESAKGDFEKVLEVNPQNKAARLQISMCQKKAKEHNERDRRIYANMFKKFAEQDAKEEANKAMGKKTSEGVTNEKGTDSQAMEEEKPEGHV

Another experiment addresses T2, FKBP52 (Homo sapiens, UniProt Q02790).
T2 sequence (Q02790 1-459): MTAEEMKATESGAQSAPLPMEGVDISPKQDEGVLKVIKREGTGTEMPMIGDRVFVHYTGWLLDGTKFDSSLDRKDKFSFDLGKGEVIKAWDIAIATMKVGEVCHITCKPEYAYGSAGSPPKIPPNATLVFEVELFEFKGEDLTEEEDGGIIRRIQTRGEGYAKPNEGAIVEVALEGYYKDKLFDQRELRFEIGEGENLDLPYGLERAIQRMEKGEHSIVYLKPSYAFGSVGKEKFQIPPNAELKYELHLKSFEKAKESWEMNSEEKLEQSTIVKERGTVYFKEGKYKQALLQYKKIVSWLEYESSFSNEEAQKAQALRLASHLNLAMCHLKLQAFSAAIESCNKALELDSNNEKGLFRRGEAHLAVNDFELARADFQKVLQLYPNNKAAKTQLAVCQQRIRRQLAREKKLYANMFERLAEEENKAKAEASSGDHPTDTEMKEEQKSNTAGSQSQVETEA

FKBP12, sequence (P62942 whole entry): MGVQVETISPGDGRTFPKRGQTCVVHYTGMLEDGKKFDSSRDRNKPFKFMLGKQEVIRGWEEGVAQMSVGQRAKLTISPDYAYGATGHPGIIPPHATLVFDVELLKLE

As a reminder, the Ki is the dissociation constant of the complex between target and ligand, obtained from inhibition or displacement. A high value points to lower affinity. On to `C=C[C@H]1CN([C@H](C)COC)C(=O)[C@@H]2CCC[C@H]1N2S(=O)(=O)c1cc(Cl)cc(Cl)c1` [22c], for which the inhibition constant (Ki) at FKBP12, at FKBP51 and on FKBP52 was more than 5000 nM throughout.

As for `C=C[C@H]1CN([C@H](C)CO)C(=O)[C@@H]2CCC[C@H]1N2S(=O)(=O)c1cc(Cl)cc(Cl)c1` [20c], the Ki at FKBP12, at FKBP51 and at FKBP52 was more than 5000 nM throughout.

Consider `C=C[C@H]1CN([C@H](C)COCc2ccccc2)C(=O)[C@@H]2CCC[C@H]1N2S(=O)(=O)c1cc(Cl)cc(Cl)c1` [15b], for which the inhibitory constant (Ki) at FKBP12, at FKBP51 and on FKBP52 was more than 5000 nM throughout.

For `C=C[C@H]1CN([C@@H](C)COCc2ccccc2)C(=O)[C@@H]2CCC[C@H]1N2S(=O)(=O)c1ccc2ncsc2c1` [16a, (1S,5S,6R)-10-(benzo[d]thiazol-6-ylsulfonyl)-3-((S)-1-(benzyloxy)propan-2-yl)-5-vinyl-3,10-diazabicyclo[4.3.1]decan-2-one], the Ki on FKBP12 amounted to 28 nM; on FKBP51, 263 nM; at FKBP52, 316 nM.

Take `C=C[C@H]1CN([C@H](C)COCc2ccccc2)C(=O)[C@@H]2CCC[C@H]1N2S(=O)(=O)c1ccc2ncsc2c1` [16b]: the Ki on FKBP12, on FKBP51 and on FKBP52 was more than 5000 nM each time.

Regarding `C=C[C@H]1CN([C@H](C)C(=O)O)C(=O)[C@@H]2CCC[C@H]1N2S(=O)(=O)c1cc(Cl)cc(Cl)c1` [21c], the Ki at FKBP12 worked out at 48 nM; at FKBP51, 123 nM; at FKBP52 it was 296 nM.

On to `C=C[C@H]1CN([C@@H](C)COCc2ccccc2)C(=O)[C@@H]2CCC[C@H]1N2S(=O)(=O)c1cc(Cl)cc(Cl)c1` [15a, (1S,5S,6R)-3-((S)-1-(benzyloxy)propan-2-yl)-10-((3,5-dichlorophenyl)sulfonyl)-5-vinyl-3,10-diazabicyclo[4.3.1]decan-2-one], for which the figures for the Ki at FKBP12, on FKBP51 and on FKBP52 were 58 nM, 1080 nM and 1030 nM, respectively.

Turning to `C=C[C@H]1CN([C@@H](C)CO)C(=O)[C@@H]2CCC[C@H]1N2S(=O)(=O)c1ccc2ncsc2c1` [17a, (1S,5S,6R)-10-(benzo[d]thiazol-6-ylsulfonyl)-3-((S)-1-hydroxypropan-2-yl)-5-vinyl-3,10-diazabicyclo[4.3.1]decan-2-one], the results for the Ki at FKBP12, at FKBP51 and on FKBP52 were 21 nM, 110 nM and 102 nM, respectively.

Regarding `C=C[C@H]1CN([C@H](C)CO)C(=O)[C@@H]2CCC[C@H]1N2S(=O)(=O)c1ccc2ncsc2c1` [17b], the Ki at FKBP12, on FKBP51 and at FKBP52 was more than 5000 nM throughout.

For the compound `C=C[C@H]1CN(CCO)C(=O)[C@@H]2CCC[C@H]1N2S(=O)(=O)c1cc(Cl)cc(Cl)c1` [20a], the Ki was 20 nM at FKBP12, 403 nM at FKBP51 and 387 nM on FKBP52.

Take `C=C[C@H]1CN([C@@H](C)CO)C(=O)[C@@H]2CCC[C@H]1N2S(=O)(=O)c1cc(Cl)cc(Cl)c1` [20b, (1S,5S,6R)-10-((3,5-dichlorophenyl)sulfonyl)-3-((S)-1-hydroxypropan-2-yl)-5-vinyl-3,10-diazabicyclo[4.3.1]decan-2-one]: the Ki on FKBP12 is 3.5 nM; at FKBP51, 107 nM; on FKBP52, 116 nM.

`C=C[C@H]1CN([C@@H](C)COC)C(=O)[C@@H]2CCC[C@H]1N2S(=O)(=O)c1cc(Cl)cc(Cl)c1` [22b, (1S,5S,6R)-10-((3,5-dichlorophenyl)sulfonyl)-3-((S)-1-methoxypropan-2-yl)-5-vinyl-3,10-diazabicyclo[4.3.1]decan-2-one]: the Ki worked out at 14 nM at FKBP12, 204 nM at FKBP51 and 205 nM on FKBP52.

As for `C=C[C@H]1CN(CCOC)C(=O)[C@@H]2CCC[C@H]1N2S(=O)(=O)c1cc(Cl)cc(Cl)c1` [22a], the Ki at FKBP12 is 59 nM; at FKBP51 it was 529 nM; on FKBP52, 377 nM.
